Experiments:
[1] = test system: human iPS cells; experiment: Cell adhesiveness evaluation 2 (synthetic polypeptides added to cells seeded on natural vitronectin); format: cell-based; conditions: 100 μM synthetic polypeptide
Procedure: The polypeptides shown in Table 7 were synthesized by an Fmoc solid-phase synthesis method. A surface onto which natural vitronectin was adsorbed at a concentration of 130 pmol/cm^2 was prepared, and then a cell suspension to which 100 μM of the aforementioned synthetic polypeptides were added was seeded into wells at a ratio of 30,000 cells/well. The number of adhesive cells 24 hours after seeding was calculated in the same manner as in <Cell adhesiveness evaluation 1>, and the results are shown in Table 7. In Table 7, the cell adhesion rate is expressed as a relative value calculated by regarding the cell adhesion rate obtained by using a culture solution not containing the synthetic polypeptides as being 100%. n=3.

[2] = Evaluation of adsorbability with respect to culture dish; format: physicochemical; conditions: FIG. 1
Procedure: Each of the polypeptides obtained as above was diluted with a predetermined buffer such that they could be added to wells at a predetermined final concentration of 0 pmol/cm^2 to 200 pmol/cm^2. Thereafter, each of the polypeptides was added in an amount of 64 μL to a plasma-treated 96-well plate made of polystyrene (Tissue Culture-Treated, Falcon). Each of the polypeptides was allowed to adsorb onto the plate by being incubated for 2 hours at 37° C., and then the wells were washed twice with PBS, thereby obtaining surfaces coated with each of the polypeptides of RCP-1 to RCP-16.
Among the surfaces coated with each of the polypeptides obtained as above, the surfaces coated with RCP-1 and RCP-11 to RCP-16 were applied with 64 μL of a borate buffer and 64 μL of 1 N NaOH, followed by incubation for 24 hours at 80° C. and 100% humidity. After the resultant was air-cooled, 75 μL of a borate buffer was added to each well, and 50 μL of a reaction solution obtained by mixing OPA (o-phthalaldehyde: Wako Pure Chemical Industries, Ltd./methanol solution (160 mg/ml)) with N-acetyl-L-cysteine (NAC: Wako Pure Chemical Industries, Ltd.)/borate buffer solution (2 mg/ml) at a ratio of 1:100 (mass ratio) was further added thereto. After incubation for 30 minutes at 40° C., the fluorescence intensity thereof was measured by using an Envision Multilabel Counter (PerkinElmer Inc.) (excitation 355 nm/fluorescence 486 nm). A calibration curve was separately prepared from each of the polypeptide solutions so as to calculate the amount of the polypeptide adsorbed. In FIG. 1, a black rhombus indicates RCP-1, a black square indicates RCP-11, a black triangle indicates RCP-12, a black circle indicates RCP-13, a white rhombus indicates RCP-14, a white square indicates RCP-15, and a white triangle indicates RCP-16.

[3] = test system: human iPS cells; experiment: Growth evaluation in Essential 8 medium with magnesium ascorbyl phosphate; format: cell-based; conditions: for number of growing cells depending on the concentration of magnesium ascorbyl phosphate (in words): Tables 10 to 13; for Number of cells after 3 days (%): n=3
Procedure: The growth of cells was evaluated in the same manner as in Reference example 5.
Magnesium ascorbyl phosphate was added to a medium. […] The samples were adsorbed onto a 96-well plate, and the iPS cells collected in the same manner as in <Cell adhesiveness evaluation 1> were seeded into the plate at a ratio of 1×10^4 cells/well and cultured for 3 days in a 5% CO2 incubator at 37° C. The number of cells after 3 days was measured in the same manner as in <Cell adhesiveness evaluation 1>. Furthermore, by using VTN-N (manufactured by Life Technologies) and Vitronectin-XF (manufactured by Primorigen Biosciences), the growth of the cells was evaluated in the same manner.
The results obtained from RCP-17 are shown in Table 10, the results obtained from Human Recombinant Laminin-511 are shown in Table 11, the results obtained from VTN-N (manufactured by Life Technologies) are shown in Table 12, and the results obtained from Vitronectin-XF (manufactured by Primorigen Biosciences) are shown in Table 13. In Tables 10 and 11, the number of cells is expressed as a relative value calculated by regarding the number of cells at the concentration of magnesium ascorbyl phosphate of 0.8 mmol/L as being 100. n=3.

[4] = test system: human iPS cells; experiment: Evaluation of maintenance of undifferentiated state; format: cell-based
Procedure: iPS cells collected in the same manner as in <Cell adhesiveness evaluation 1> were suspended in TeSR2. The iPS cells were seeded into 6-well plate (Tissue culture-treated, Falcon), onto which each of the samples 1, 2, 5, 6, and 7 used in <Cell adhesiveness evaluation 1> was adsorbed in the same manner as in <Cell adhesiveness evaluation 1>, and cultured in a CO2 incubator at 37° C. Except for the day after the seeding, the medium was replaced every day. In the same method as described above, the cells were subcultured every six days. FIGS. 3A to 3E show forms of the iPS cells cultured on each of the samples.
After being cultured for 1 month under the conditions described above, the cells were immobilized using 4% paraformaldehyde and treated with 1% Triton-X/PBS so as to enhance the membrane permeability. After the cells were subjected to a blocking treatment using an Image IT Signal Enhancer (Invitrogen), an anti-human NANOG antibody (AF 1997, R&D Systems, Inc.), an Alexa Fluor 555 binding rabbit anti-goat IgG antibody (Invitrogen), and DAPI (Dojindo Molecular Technologies, Inc.) were added thereto for labeling, and the cells were imaged using a fluorescence microscope. FIGS. 4A to 4E show the fluorescence microscopic images.
FIGS. 3A and 4A show the iPS cells cultured on RCP-1; FIGS. 3B and 4B show the iPS cells cultured on RCP-11; FIGS. 3C and 4C show the iPS cells cultured on natural human vitronectin; FIGS. 3D and 4D show the iPS cells cultured on rLaminin-5; and FIGS. 3E and 4E show the iPS cells cultured on rLaminin-511. The scale bar in the images indicates 100 μm. In FIGS. 3A to 3E, the images on the left side are full images of the colony, and the images on the right side are magnified images. In FIGS. 4A to 4E, the images on the left side are images of the cells stained with DAPI, and the images on the right side are images of the cells stained with an anti-NANOG antibody. The scale bar in FIGS. 3 and 4 indicates 200 μm.

With “DQESCKGRCTEGFNVDKKCQ [Peptide-1, polypeptide synthesized by an Fmoc solid-phase synthesis method]” the “adhesion of cells to the natural vitronectin on addition of the peptide (in words)” value (shortened to “adhesion of cells”) [1] was “not hindered”.

For “KGRCTEGFNVDKKCQCDELC [Peptide-2, polypeptide synthesized by an Fmoc solid-phase synthesis method]”, the “adhesion of cells” value [1] was “not hindered”.

With TAECKPQVTRGEVFTMPEDE [Peptide-8] the “adhesion of cells” value [1] was “not hindered”.

In the case of “EGFNVDKKCQCDELCSYYQS [Peptide-3, polypeptide synthesized by an Fmoc solid-phase synthesis method]”, the “adhesion of cells” value [1] is reported as “not hindered”.

In the case of “RCP-14: recombinant polypeptide, human vitronectin positions 1-55 (GPLGDQESCKGRCTEGFNVDKKCQCDELCSYYQSCCTDYTAECKPQVTRGDVFTMPEDE; Synthetic Peptide RCP-14)”, the “amount adsorbed onto the plate relative to the polypeptide including SEQ ID NO: 3” value [2] is reported as “about 1/4”.

For “DKKCQCDELCSYYQSCCTDY [Peptide-4, polypeptide synthesized by an Fmoc solid-phase synthesis method]”, the “adhesion of cells” value [1] was “significantly hindered”.

For “Laminin-511: recombinant laminin (Human Recombinant Laminin-511: BIOLAMINA AB), control”, the “number of growing cells depending on the concentration of magnesium ascorbyl phosphate (in words)” value [3] was “does not depend”, the “Number of cells after 3 days (%)” value ([3]; magnesium ascorbyl phosphate 0.2 mmol/L, added amount 20 μg/cm^3, Table 11, relative to 0.8 mmol/L = 100) was 61% and the “Number of cells after 3 days (%)” value ([3]; magnesium ascorbyl phosphate 0.5 mmol/L, added amount 20 μg/cm^3, Table 11, relative to 0.8 mmol/L = 100) was 79%. The “Number of cells after 3 days (%)” value ([3]; magnesium ascorbyl phosphate 0.8 mmol/L, added amount 20 μg/cm^3, Table 11, reference = 100) was 100%, the “Number of cells after 3 days (%)” value ([3]; magnesium ascorbyl phosphate 1.6 mmol/L, added amount 20 μg/cm^3, Table 11, relative to 0.8 mmol/L = 100) was 90% and the “Number of cells after 3 days (%)” value ([3]; magnesium ascorbyl phosphate 3.7 mmol/L, added amount 20 μg/cm^3, Table 11, relative to 0.8 mmol/L = 100) was 114%. The “Number of cells after 3 days (%)” value ([3]; magnesium ascorbyl phosphate 9.1 mmol/L, added amount 20 μg/cm^3, Table 11, relative to 0.8 mmol/L = 100) was 100% and the “Number of cells after 3 days (%)” value ([3]; magnesium ascorbyl phosphate 18.1 mmol/L, added amount 20 μg/cm^3, Table 11, relative to 0.8 mmol/L = 100) was 112%.

For “CCTDYTAECKPQVTRGDVFT [Peptide-5, polypeptide synthesized by an Fmoc solid-phase synthesis method]”, the “adhesion of cells” value [1] was “significantly hindered”.

With “TAECKPQVTRGDVFTMPEDE [Peptide-6, polypeptide synthesized by an Fmoc solid-phase synthesis method]” the “adhesion of cells” value [1] was “significantly hindered”.

For CCTDYTAECKPQVTRGEVFT [Peptide-7], the “adhesion of cells” value [1] was “not hindered”.

B1: Natural vitronectin: human vitronectin (extracted from human serum, BD Biosciences), control (protein, listed as Homo sapiens)
chain: DQESCKGRCTEGFNVDKKCQCDELCSYYQSCCTDYTAECKPQVTRGDVFTMPEDEYTVYDDGEEKNNATVHEQVGGPSLTSDLQAQSKGNPEQTPVLKPEEEAPAPEVGASKPEGIDSRPETLHPGRPQPPAEEELCSGKPFDAFTDLKNGSLFAFRGQYCYELDEKAVRPGYPKLIRDVWGIEGPIDAAFTRINCQGKTYLFKGSQYWRFEDGVLDPDYPRNISDGFDGIPDNVDAALALPAHSYSGRERVYFFKGKQYWEYQFQHQPSQEECEGSSLSAVFEHFAMMQRDSWEDIFELLFWGRTSAGTRQPQFISRDWHGVPGQVDAAMAGRIYISGMAPRPSLAKKQRFRHRNRKGYRSQRGHSRGRNQNSRRPSRATWLSLFSSEESNLGANNYDDYRMDWLVPATCEPIQSVFFFSGDKYYRVNLRTRRVDTVDPPYPRSIAQYWLGCPAPGHL
With B1 the “form of the iPS cell colony” value ([4]; FIGS. 3A to 3E, TeSR2, subcultured every six days) was “form specific to undifferentiated cells” and the “maintenance of the undifferentiated state (NANOG staining)” value ([4]; FIGS. 4A to 4E, after culture for 1 month) was “strongly expressed NANOG in the entirety of the colony”.

B2: RCP-17: recombinant polypeptide, human vitronectin positions 1-55, 269-277, 295-341, 342-373, C274S (protein)
chain: MDQESCKGRCTEGFNVDKKCQCDELCSYYQSCCTDYTAECKPQVTRGDVFTMPEDESQEESEGSEDIFELLFWGRTSAGTRQPQFISRDWHGVPGQVDAAMAGRIYISGMAPRPSLAKKQRFRHRNRKGYRSQRGHSRGRNQN
modifications: Synthetic Peptide RCP-17
notes: recombinant polypeptide, human vitronectin positions 1-55, 269-277, 295-341, 342-373, C274S
With B2 the “number of growing cells depending on the concentration of magnesium ascorbyl phosphate (in words)” value [3] was “increases”, the “Number of cells after 3 days (%)” value ([3]; magnesium ascorbyl phosphate 0.2 mmol/L, added amount 100 μg/cm^3, 1×10^4 cells/well, relative to 0.8 mmol/L = 100) was 114% and the “Number of cells after 3 days (%)” value ([3]; magnesium ascorbyl phosphate 0.5 mmol/L, added amount 100 μg/cm^3, 1×10^4 cells/well, relative to 0.8 mmol/L = 100) was 98%. For the same molecule, the “Number of cells after 3 days (%)” value ([3]; magnesium ascorbyl phosphate 0.8 mmol/L, added amount 100 μg/cm^3, 1×10^4 cells/well, reference = 100) was 100%, the “Number of cells after 3 days (%)” value ([3]; magnesium ascorbyl phosphate 1.6 mmol/L, added amount 100 μg/cm^3, 1×10^4 cells/well, relative to 0.8 mmol/L = 100) was 145% and the “Number of cells after 3 days (%)” value ([3]; magnesium ascorbyl phosphate 3.7 mmol/L, added amount 100 μg/cm^3, 1×10^4 cells/well, relative to 0.8 mmol/L = 100) was 219%. For the same molecule, the “Number of cells after 3 days (%)” value ([3]; magnesium ascorbyl phosphate 9.1 mmol/L, added amount 100 μg/cm^3, 1×10^4 cells/well, relative to 0.8 mmol/L = 100) was 212%, the “Number of cells after 3 days (%)” value ([3]; magnesium ascorbyl phosphate 18.1 mmol/L, added amount 100 μg/cm^3, 1×10^4 cells/well, relative to 0.8 mmol/L = 100) was 204% and the “Number of cells after 3 days (%)” value ([3]; magnesium ascorbyl phosphate 36.0 mmol/L, added amount 100 μg/cm^3, 1×10^4 cells/well, relative to 0.8 mmol/L = 100) was 230%.
